Experimental data taken from patent US20180311174A1, “NANOPARTICLES COMPRISING A METAL CORE SURROUNDED BY A MONOLAYER FOR LYMPH NODE TARGETING” (Massachusetts Institute of Technology, priority 2015, published 2018).
Each block holds one molecule with its values, some of them ahead of it.

Columns and labels:
[1] = Hydrophobic drug loading capacity of NPs (UV-vis/HPLC); format: physicochemical
Excerpt: In this drug loading strategy, DGKi or other hydrophobic drugs in organic solvent are mixed with an aqueous suspension of amph-NPs and dialyzed to remove the organic solvent, leading to partitioning of the drug into the hydrophobic pockets of the amph-NP ligand shell. This approach allowed one to load drugs that are nearly insoluble in aqueous solutions to high degrees of “solubility” via incorporation into MUS or MUSOT amph-NPs.
More detailed procedures to prepare small molecules-loaded NPs are as follows: Hydrophobic small molecules are dissolved in pure ethanol, and mixed with NPs in a dialysis tube against water. Dialysis tubes containing 100-500 Da molecular weight cut off allows ethanol to permeate while retains most small molecules. […] Loaded drugs were then quantified via absorbance using UV-vis spectrometer.
To test immunomodulatory drug loading capacity, small-molecule drug N-acetylcysteine (NAC) was loaded directly onto the gold core via sulfur-gold covalent bonding. […] The drug loading efficiency was determined by HPLC and UV-vis.
In this drug loading strategy, DGKi or other hydrophobic drugs in organic solvent are mixed with an aqueous suspension of amph-NPs and dialyzed to remove the organic solvent, leading to partitioning of the drug into the hydrophobic pockets of the amph-NP ligand shell. […] Loaded drugs were then quantified via absorbance using UV-vis spectrometer. […]

DCs, B and T cells = experiment: Immune cell activation in lymph nodes after s.c. R848; format: in vivo, C57BL/6 mice; conditions: doses above 5 μg, 24 h post injection
Method: From there they disperse into the body and drain into the lymph system where they encounter cells sensitive to their adjuvants. Serum inflammatory cytokines were tested one hour post injection given the short half-life of small molecules.
R848 (Resiquimod, a TLR7/8 agonist) was loaded into amph-NPs, and administered subcutaneously at the tail base. Serum was collected 1 hour post injection to evaluate systemic toxicity. Cells in LNs were isolated 24 h post injection to analyze immune cell activation.
Small molecules like R848 diffuse quickly into blood vessels, which may lead to severe systemic adverse effect. An experiment was designed to determine if by using lymph node targeted NPs, systemic adverse effects could be reduced while activation of local lymphocytes remains effective. Systemic toxicity was compared by measuring TNF, IL-6, IL-10, and MCP-1, and measuring activation of lymphatic cells.

Cytotoxic T cells = experiment: T cell proliferation under PD-L1 induced suppression; format: cell-based; conditions: αCD3/CD28 activated
Method: Cytotoxic T cells were incubated with αCD3/CD28 activating antibody and either control IgG, or with PD-L1 IgG (PD-1 agonist antibody) to induce T cell suppression, and further treated with vehicle, DGK inhibitor alone, DGK inhibitor loaded amph-NP, or amph-NP alone.

PD-1 = experiment: cell-based or functional assay

loading in amph-NPs [1]: loads well
Molecule: CN[C@@H](C)C(=O)N[C@H](C(=O)N1CCC[C@H]1c1nc(C(=O)c2ccc(F)cc2)cs1)C1CCCCC1 [LCL161]

Molecule: CCOCc1nc2c(N)nc3ccccc3c2n1CC(C)(C)O [R848, Resiquimod]
activation of immune cells in LNs (DCs, B and T cells): activated DCs, B and T cells

Molecule: Cc1nc2sccn2c(=O)c1CCN1CCC(=C(c2ccccc2)c2ccc(F)cc2)CC1 [diacyl kinase inhibitor]
% proliferating cells (Cytotoxic T cells; PD-L1 IgG (suppressed)): 2.71%
% proliferating cells (Cytotoxic T cells; control IgG): 89.9%

Molecule: PD-L1 IgG (PD-1 agonist antibody)
% proliferating cells (cytotoxic T cells with anti-CD3/CD28, vehicle / no treatment; control IgG gave 71.3%) (PD-1): 0.98%
